Test results taken from patent US20110046071A1 (TEL HASHOMER MEDICAL RESEARCH INFRASTRUCTURE AND SERVICES …, priority 2008, published 2011).
Entries after “also recorded” stand apart in the source; their conditions may differ.

Columns and labels:
[1] = cited from earlier work
[2] = test system: cAMP levels in MCF-7 cells; assay: cAMP radioimmunoassay; type: cell-based; conditions: 5 minutes; for cAMP accumulation / production: exendin-4 5 nM, GLP-1 5 nM, exendin (9-39) 100 nM, 2′5′-dideoxy adenosine 30 μM (60 minutes preincubation)
Protocol: cAMP measurements: For cAMP measurement, a radioimmunoassay was carried out as follows: cells and 100 μl media were snap frozen in liquid nitrogen, thawed and diluted in buffer acetate. […] Bound cAMP was precipitated and counted in a γ-counter, and concentration determined using a standard curve and positive controls.

MCF-7 cells [3] = conditions: human, 72 h, 50 nM
Protocol: Doxorubicin is a commonly used chemotherapy against breast cancer.
Media and treatments were changed once after 48 hrs. After 72 hrs of incubation at 37° C., 5% CO2, the cells were cultured for four hours with 10% MIT reagent (5 mg/ml; Sigma-Aldrich). The medium was aspirated, and the cells were dissolved by dimethyl sulfoxide (DMSO). Absorbance of the formazan product was measured by an enzyme-linked immunosorbent assay reader.

[4] = in vivo; cited from earlier work
MCF-7 cells [5] = assay: cells; type: cell-based; conditions: Homo sapiens, MCF7, read-out: inhibition of cell viability
Text: Human embryonic kidney HEK-293 and primary liver cells were used as controls.
Medium was replaced once after 48 hrs.

[6] = test system: CREB, p38, ERK1/2, AKT, AMPK in MCF-7 cells; assay: Western blot of signaling pathways (CREB, p38, ERK1/2, AKT, AMPK, ACC); type: cell-based; conditions: for AMPK and ACC phosphorylation (AMP kinase activity): comparable to the AMPK activator AICAR
Protocol: 50 μg protein extracts were loaded on 10% polyacrylamide gels, separated electrophoretically and blotted from the gel onto nitrocellulose membrane (Schleicher & Schuell Bioscience GmbH, Dassel, Del.). The membranes were then immunoblotted with the indicated antibodies. Band intensities were quantified using ImageJ software. Colony assays: 200 cells/well were plated on 12-well plate. […] Medium was replaced twice a week and at day 14, the cells were stained using crystal violet. Quantification of the results was performed using ImageJ.

| Molecule | cAMP accumulation / production [2] | crossing of the blood-brain barrier [4] | p38 MAPK activation / phosphorylation [6] | CREB phosphorylation ([6]; 15 minutes) | AMPK and ACC phosphorylation (AMP kinase activity) [6] | further results |
| --- | --- | --- | --- | --- | --- | --- |
| N[C@@H](CC(=O)N1CCn2c(nnc2C(F)(F)F)C1)Cc1cc(F)c(F)cc1F [Sitagliptin, (2R)-4-oxo-4-[3-(trifluoromethyl)-5,6-dihydro[1,2,4]triazolo[4,3-a]pyrazin-7(8H)-yl]-1-(2,4,5-trifluorophenyl)butan-2-amine] | – | – | – | – | – | eliminated without being metabolized ([1]; human subjects, via the kidney): 74%; half life ([1]; in vivo): 8 to 12 h |
| C[C@H]1O[C@@H](n2cnc3c(N)ncnc32)C[C@@H]1O [ddA, 2′5′ dideoxy-adenosine] | inhibited | – | – | – | – | – |
| COc1cccc2c1C(=O)c1c(O)c3c(c(O)c1C2=O)C[C@@](O)(C(=O)CO)C[C@@H]3O[C@H]1C[C@H](N)[C@H](O)[C@H](C)O1 [doxorubicin] | – | does not cross the blood-brain barrier | – | – | – | reduction of viability (MCF-7 cells [3]): 20% |
| C=C[C@@]1(C)CC(=O)[C@]2(O)[C@@]3(C)[C@@H](O)CCC(C)(C)[C@@H]3[C@H](O)[C@H](OC(C)=O)[C@@]2(C)O1 [forskolin] | – | – | – | – | – | cytotoxicity at 1 µM (MCF-7 cells [5]): 60%; elevation of cAMP levels ([2]; forskolin 1 μM): 6 fold |
| Glucagon-like peptide 1 [GLP-1] | elevated; also recorded: similar | able to cross the blood-brain barrier | induced; also recorded: activated | induced; also recorded: CREB phosphorylation | phosphorylated | ERK1/2 and AKT pathways ([6]; 15 minutes): Neither GLP-1 nor exendin-4 affected; also recorded: neither ERK1/2 nor AKT were affected |
| exendin(9-39) | increased cAMP accumulation similarly to exendin-4 and GLP-1 | – | enhanced | enhanced | phosphorylated | – |
